Source: paper PMC7156458, “Synthetic biology based construction of biological activity-related library of fungal decalin-containing diterpenoid pyrones” (Nature Communications, 2020)

Target: Aβ42 (Homo sapiens, UniProt P05067)
Assay: Th-T (thioflavin-T) assay of Aβ42 aggregation
Format: biochemical

Chain of Aβ42 (P05067 672-713): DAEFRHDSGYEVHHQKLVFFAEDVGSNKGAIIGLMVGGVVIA

Compound: C=C1CCC2C(C)(CCC=C(C)C)C(O)CCC2(C)C1Cc1c(OC)oc(C)c(C(=O)OC)c1=O (stereo not drawn) [Compound 14]
- Fig. 7a Th-T reading, mean of three wells (column suffix _20, reading M101): 1.75
- Fig. 7a Th-T reading, mean of three wells (column suffix _20, reading M102): 1.725
- Fig. 7a Th-T reading, mean of three wells (column suffix _20, reading M103): 1.692
- Fig. 7a Th-T reading, mean of three wells (column suffix _20, reading M104): 1.726
- Fig. 7a Th-T reading, mean of three wells (column suffix _20, reading M105): 1.714
- Fig. 7a Th-T reading, mean of three wells (column suffix _20, reading M106): 1.718
- Th-T fluorescence, mean of three wells (Fig. 7a) (column suffix _50, measurement M19): 0.5495
- Th-T fluorescence, mean of three wells (Fig. 7a) (column suffix _50, measurement M20): 0.5788
- Th-T fluorescence, mean of three wells (Fig. 7a) (column suffix _50, measurement M21): 0.6066
- Th-T fluorescence, mean of three wells (Fig. 7a) (column suffix _50, measurement M22): 0.6351
- Th-T fluorescence, mean of three wells (Fig. 7a) (column suffix _50, measurement M23): 0.669
- Th-T fluorescence, mean of three wells (Fig. 7a) (column suffix _50, measurement M24): 0.7075
- Th-T fluorescence, mean of three wells (Fig. 7a) (column suffix _50, measurement M25): 0.7535
- Th-T fluorescence, mean of three wells (Fig. 7a) (column suffix _50, measurement M26): 0.8076
- Th-T fluorescence, mean of three wells (Fig. 7a) (column suffix _50, measurement M27): 0.8688
- Th-T fluorescence, mean of three wells (Fig. 7a) (column suffix _50, measurement M28): 0.9376
- Th-T fluorescence, mean of three wells (Fig. 7a) (column suffix _50, measurement M29): 1.02
- Th-T assay signal, mean of three wells (Fig. 7a) (column suffix _50, reading M1): 0.5105
- Th-T assay signal, mean of three wells (Fig. 7a) (column suffix _50, reading M2): 0.462
- Th-T assay signal, mean of three wells (Fig. 7a) (column suffix _50, reading M3): 0.4558
- Th-T assay signal, mean of three wells (Fig. 7a) (column suffix _50, reading M4): 0.4485
- Th-T assay signal, mean of three wells (Fig. 7a) (column suffix _50, reading M5): 0.4526
- Th-T assay signal, mean of three wells (Fig. 7a) (column suffix _50, reading M6): 0.449
- Th-T assay signal, mean of three wells (Fig. 7a) (column suffix _50, reading M7): 0.4479
- Th-T assay signal, mean of three wells (Fig. 7a) (column suffix _50, reading M8): 0.4517
- Th-T assay signal, mean of three wells (Fig. 7a) (column suffix _50, reading M9): 0.4533
- Th-T assay signal, mean of three wells (Fig. 7a) (column suffix _50, reading M10): 0.4553
- Th-T assay signal, mean of three wells (Fig. 7a) (column suffix _50, reading M11): 0.4593
- Th-T assay signal, mean of three wells (Fig. 7a) (column suffix _50, reading M12): 0.4664
- Th-T assay signal, mean of three wells (Fig. 7a) (column suffix _50, reading M13): 0.4713
- Th-T assay signal, mean of three wells (Fig. 7a) (column suffix _50, reading M14): 0.4784
- Th-T assay signal, mean of three wells (Fig. 7a) (column suffix _50, reading M15): 0.4927
- Th-T assay signal, mean of three wells (Fig. 7a) (column suffix _50, reading M16): 0.5
- Th-T assay signal, mean of three wells (Fig. 7a) (column suffix _50, reading M17): 0.5148
- Th-T assay signal, mean of three wells (Fig. 7a) (column suffix _50, reading M18): 0.5358
- Fig. 7a Th-T reading, mean of three wells (column suffix _50, reading M85): 2.033
- Fig. 7a Th-T reading, mean of three wells (column suffix _50, reading M86): 1.994
- Fig. 7a Th-T reading, mean of three wells (column suffix _50, reading M87): 1.943
- Fig. 7a Th-T reading, mean of three wells (column suffix _50, reading M88): 1.897
- Fig. 7a Th-T reading, mean of three wells (column suffix _50, reading M89): 1.8491
- Fig. 7a Th-T reading, mean of three wells (column suffix _50, reading M90): 1.8142
- Fig. 7a Th-T reading, mean of three wells (column suffix _50, reading M91): 1.746
- Fig. 7a Th-T reading, mean of three wells (column suffix _50, reading M92): 1.726
- Fig. 7a Th-T reading, mean of three wells (column suffix _50, reading M93): 1.698
- Fig. 7a Th-T reading, mean of three wells (column suffix _50, reading M94): 1.676
- Fig. 7a Th-T reading, mean of three wells (column suffix _50, reading M95): 1.616
- Fig. 7a Th-T reading, mean of three wells (column suffix _50, reading M96): 1.587
- Fig. 7a Th-T reading, mean of three wells (column suffix _50, reading M97): 1.553
- Fig. 7a Th-T reading, mean of three wells (column suffix _50, reading M98): 1.5408
- Fig. 7a Th-T reading, mean of three wells (column suffix _50, reading M99): 1.482
- Fig. 7a Th-T reading, mean of three wells (column suffix _50, reading M100): 1.465
- Fig. 7a Th-T reading, mean of three wells (column suffix _50, reading M101): 1.408
- Fig. 7a Th-T reading, mean of three wells (column suffix _50, reading M102): 1.3987
- Fig. 7a Th-T reading, mean of three wells (column suffix _50, reading M103): 1.372
- Fig. 7a Th-T reading, mean of three wells (column suffix _50, reading M104): 1.353
- Fig. 7a Th-T reading, mean of three wells (column suffix _50, reading M105): 1.325
- Fig. 7a Th-T reading, mean of three wells (column suffix _50, reading M106): 1.281
- Th-T fluorescence, mean of three wells (compound at 10, reading M41 of time course): 2.4889
- Th-T fluorescence, mean of three wells (compound at 10, reading M42 of time course): 2.504
- Th-T fluorescence, mean of three wells (compound at 10, reading M43 of time course): 2.483
- Th-T fluorescence, mean of three wells (compound at 10, reading M44 of time course): 2.485
- Th-T fluorescence, mean of three wells (compound at 10, reading M45 of time course): 2.494
- Th-T fluorescence, mean of three wells (compound at 10, reading M46 of time course): 2.517
- Th-T fluorescence, mean of three wells (compound at 10, reading M47 of time course): 2.535
- Th-T fluorescence, mean of three wells (compound at 10, reading M48 of time course): 2.517
- Th-T fluorescence, mean of three wells (compound at 10, reading M49 of time course): 2.512
- Th-T fluorescence, mean of three wells (compound at 10, reading M50 of time course): 2.53
- Th-T fluorescence, mean of three wells (compound at 10, reading M51 of time course): 2.541
- Th-T fluorescence, mean of three wells (compound at 10, reading M52 of time course): 2.557
- Th-T fluorescence, mean of three wells (compound at 10, reading M53 of time course): 2.545
- Th-T fluorescence, mean of three wells (compound at 10, reading M54 of time course): 2.546
- Th-T fluorescence, mean of three wells (compound at 10, reading M55 of time course): 2.573
- Th-T fluorescence, mean of three wells (compound at 10, reading M56 of time course): 2.561
- Th-T fluorescence, mean of three wells (compound at 10, reading M57 of time course): 2.58
- Th-T fluorescence, mean of three wells (compound at 10, reading M58 of time course): 2.605
- Th-T fluorescence, mean of three wells (compound at 10, reading M59 of time course): 2.634
- Th-T fluorescence, mean of three wells (compound at 10, reading M60 of time course): 2.6643
- Th-T fluorescence, mean of three wells (compound at 10, reading M61 of time course): 2.702
- Th-T fluorescence, mean of three wells (compound at 10, reading M62 of time course): 2.713
- Th-T fluorescence, mean of three wells (compound at 20, reading M41 of time course): 2.067
- Th-T fluorescence, mean of three wells (compound at 20, reading M42 of time course): 2.077
- Th-T fluorescence, mean of three wells (compound at 20, reading M43 of time course): 2.068
- Th-T fluorescence, mean of three wells (compound at 20, reading M44 of time course): 2.111
- Th-T fluorescence, mean of three wells (compound at 20, reading M45 of time course): 2.074
- Th-T fluorescence, mean of three wells (compound at 20, reading M46 of time course): 2.138
- Th-T fluorescence, mean of three wells (compound at 20, reading M47 of time course): 2.131
- Th-T fluorescence, mean of three wells (compound at 20, reading M48 of time course): 2.161
- Th-T fluorescence, mean of three wells (compound at 20, reading M49 of time course): 2.157
- Th-T fluorescence, mean of three wells (compound at 20, reading M50 of time course): 2.15
- Th-T fluorescence, mean of three wells (compound at 20, reading M51 of time course): 2.157
- Th-T fluorescence, mean of three wells (compound at 20, reading M52 of time course): 2.143
- Th-T fluorescence, mean of three wells (compound at 20, reading M53 of time course): 2.161
- Th-T fluorescence, mean of three wells (compound at 20, reading M54 of time course): 2.178
- Th-T fluorescence, mean of three wells (compound at 20, reading M55 of time course): 2.1338
- Th-T fluorescence, mean of three wells (compound at 20, reading M56 of time course): 2.09
- Th-T fluorescence, mean of three wells (compound at 20, reading M57 of time course): 2.136
- Th-T fluorescence, mean of three wells (compound at 20, reading M58 of time course): 2.093
- Th-T fluorescence, mean of three wells (compound at 20, reading M59 of time course): 2.054
- Th-T fluorescence, mean of three wells (compound at 20, reading M60 of time course): 2.083
- Th-T fluorescence, mean of three wells (compound at 20, reading M61 of time course): 2.064
- Th-T fluorescence, mean of three wells (compound at 20, reading M62 of time course): 2.104
- Th-T fluorescence, mean of three wells (compound at 50, reading M41 of time course): 4.082
- Th-T fluorescence, mean of three wells (compound at 50, reading M42 of time course): 4.376
- Th-T fluorescence, mean of three wells (compound at 50, reading M43 of time course): 4.613
- Th-T fluorescence, mean of three wells (compound at 50, reading M44 of time course): 4.79
- Th-T fluorescence, mean of three wells (compound at 50, reading M45 of time course): 4.938
- Th-T fluorescence, mean of three wells (compound at 50, reading M46 of time course): 5.058
- Th-T fluorescence, mean of three wells (compound at 50, reading M47 of time course): 5.101
- Th-T fluorescence, mean of three wells (compound at 50, reading M48 of time course): 5.128
- Th-T fluorescence, mean of three wells (compound at 50, reading M49 of time course): 5.105
- Th-T fluorescence, mean of three wells (compound at 50, reading M50 of time course): 5.093
- Th-T fluorescence, mean of three wells (compound at 50, reading M51 of time course): 4.998
- Th-T fluorescence, mean of three wells (compound at 50, reading M52 of time course): 4.942
- Th-T fluorescence, mean of three wells (compound at 50, reading M53 of time course): 4.822
